According to patent US7557110B2, “Pyrazolo[1,5-A] pyrimidine derivatives” (Teijin Pharma Limited, priority 2003, dated 2009):
Where two headings read alike, the source gives them in different places.

How the values were obtained:
MAPKAP-K2 = MAPKAP-K2 (Homo sapiens, UniProt P49137); assay: MAPKAP-K2 enzyme activity inhibition (33P-ATP filter plate kinase assay); assay type: biochemical; settings: MAPKAP-K2 inhibitory activity; assays conducted at typically 1-100 μM; further: key: +: active; ++: more active; +++: very active
CDK-1 = CDK-1 (Homo sapiens, UniProt P06493); assay: CDK-1 enzyme activity inhibition (33P-ATP filter plate kinase assay)
Description: [General Procedure for Measurement of CDK-1 Enzyme Activity Inhibition]
Compounds were dissolved in DMSO at a concentration of 10 mM and stored in aliquots at −20° C. Compounds in DMSO from these stock aliquots were diluted in DMSO to produce the required range of 30× stock solutions. These stock solutions were then subjected to 1:3 dilutions in order to prepare the required range of 10× stock solutions and 5 μL of each solution was used per 50 μL reaction.
The kinase reaction was conducted in a round-bottomed polypropylene 96-well plate. CDK-1 was diluted to 0.5 U/μL in diluent buffer (50 mM Tris/HCl. pH7.5, 0.1 mM EGTA, 0.1% (v/v) β-mercaptoethanol, 1 mg/mL BSA). 5 μL compound or 30% DMSO was added to each well followed by 25 μL substrate cocktail (final concentration: 10 μM ATP, 50 μM peptide ([sequence]), 0.5 μCi ^33P-γ-ATP in 50 mM Tris-HCl (pH 7.5), 1 mM EGTA, 2 mM DTT, 10 mM MgCl2, 0.01% Brij-35). The reaction was initiated with the addition of 20 μL enzyme solution per well or 20 μL of diluent buffer without enzyme. The plate was shaken for 10 seconds and then left at room temperature for 15 minutes. The reaction was terminated with 50 μL 150 mM phosphoric acid. 90 μL of the reaction mixture was then transferred into a 96-well P81 filter plate (Whatmann) and incubated at room temperature for 5 minutes. The filter plate was then washed 4 times with 200 μL 75 mM phosphoric acid per well on a plate vacuum manifold (Millipore) and dried in an oven for 2-3 hours. Packard MicroScint ‘0’ (30 μL) was then added to each well, the plate was miffed for 30 minutes and subjected to liquid scintillation counting on a Packard TopCount.

CDK-2 = CDK-2 (Homo sapiens, UniProt P24941); assay: CDK-2 enzyme activity inhibition (33P-ATP filter plate kinase assay); assay type: biochemical
Text: [General Procedure for Measurement of CDK-2 Enzyme Activity Inhibition]

[1] = read-out: CDK-2 inhibition IC50

Sequence of MAPKAP-K2 (P49137 whole entry): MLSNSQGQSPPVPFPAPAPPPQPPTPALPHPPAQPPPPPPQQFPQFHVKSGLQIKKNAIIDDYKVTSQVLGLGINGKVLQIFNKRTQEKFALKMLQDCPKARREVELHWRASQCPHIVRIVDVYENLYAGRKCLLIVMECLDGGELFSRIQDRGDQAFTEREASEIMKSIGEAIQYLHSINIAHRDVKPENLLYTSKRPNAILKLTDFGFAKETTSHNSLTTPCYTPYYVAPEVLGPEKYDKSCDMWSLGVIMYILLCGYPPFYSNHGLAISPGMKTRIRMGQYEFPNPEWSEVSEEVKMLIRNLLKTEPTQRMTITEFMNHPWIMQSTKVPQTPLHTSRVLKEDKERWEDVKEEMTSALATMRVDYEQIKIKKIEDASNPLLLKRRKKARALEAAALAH
Sequence of CDK-1 (P06493 whole entry, species assumed): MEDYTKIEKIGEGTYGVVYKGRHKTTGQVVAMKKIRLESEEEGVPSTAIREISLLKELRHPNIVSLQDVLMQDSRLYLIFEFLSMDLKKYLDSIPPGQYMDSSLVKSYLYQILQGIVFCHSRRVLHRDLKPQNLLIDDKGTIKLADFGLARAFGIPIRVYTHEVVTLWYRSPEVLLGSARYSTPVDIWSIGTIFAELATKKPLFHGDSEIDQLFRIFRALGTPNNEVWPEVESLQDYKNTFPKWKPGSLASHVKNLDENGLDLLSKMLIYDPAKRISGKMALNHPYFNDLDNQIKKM
Sequence of CDK-1 (P14635 whole entry partner, species assumed): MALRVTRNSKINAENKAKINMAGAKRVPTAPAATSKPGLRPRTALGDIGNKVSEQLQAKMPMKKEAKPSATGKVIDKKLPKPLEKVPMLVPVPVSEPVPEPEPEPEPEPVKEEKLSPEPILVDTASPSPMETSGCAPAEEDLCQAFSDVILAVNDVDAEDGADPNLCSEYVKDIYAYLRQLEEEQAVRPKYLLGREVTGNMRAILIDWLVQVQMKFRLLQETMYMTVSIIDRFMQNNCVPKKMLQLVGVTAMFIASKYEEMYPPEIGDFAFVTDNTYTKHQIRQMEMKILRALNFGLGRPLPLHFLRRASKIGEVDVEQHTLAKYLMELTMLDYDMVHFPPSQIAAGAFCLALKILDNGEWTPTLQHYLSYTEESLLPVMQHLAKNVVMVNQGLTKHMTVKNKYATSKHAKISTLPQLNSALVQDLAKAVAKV

melting point	activity (efficacy against MAPKAP-K2) (MAPKAP-K2)	IC50 (CDK-1)	IC50 (CDK-2; [1])	IC50 (CDK-2)	Compound
176 to 178 °C	+++	< 100 µM	–	–	CCc1c(N[C@H]2CC[C@H](N)CC2)nc2ccnn2c1Nc1ccccc1C [Compound 29]
190 to 192 °C	+++	< 100 µM	–	–	CCc1c(N[C@H]2CC[C@H](N)CC2)nc2ccnn2c1Nc1ccc(SC)cc1 [Compound 36]
–	+++	< 100 µM	–	< 100 µM	CCc1c(N[C@H]2CC[C@H](N)CC2)nc2ccnn2c1Nc1ccc(F)c(Cl)c1 [Compound 23]
–	+++	< 100 µM	–	< 100 µM	Cc1c(N[C@H]2CC[C@H](N)CC2)nc2ccnn2c1Nc1ccccc1Cl [Compound 15]
–	+++	< 100 µM	–	< 100 µM	CCc1c(N[C@H]2CC[C@H](N)CC2)nc2ccnn2c1Nc1ccccc1Cl [Compound 16]
–	+++	< 100 µM	–	< 100 µM	CCCc1c(N[C@H]2CC[C@H](N)CC2)nc2ccnn2c1Nc1ccc(F)c(Cl)c1 [Compound 11]
–	+++	< 100 µM	< 100 µM	–	CCc1c(N[C@H]2CC[C@H](N)CC2)nc2ccnn2c1Nc1ccc(OC)cc1 [Compound 28]
176 to 178 °C	+++	< 100 µM	–	–	C=CCc1c(N[C@H]2CC[C@H](N)CC2)nc2ccnn2c1Nc1ccc(F)c(Cl)c1 [Compound 19]
153 to 155 °C	+++	< 100 µM	–	–	C=CCc1c(N[C@H]2CC[C@H](N)CC2)nc2ccnn2c1Nc1ccccc1Cl [Compound 17]

Continued, compound first:

Compound	melting point	activity (efficacy against MAPKAP-K2) (MAPKAP-K2)	IC50 (CDK-1)	IC50 (CDK-2; [1])	IC50 (CDK-2)
CCOc1ccc(Nc2c(CC)c(N[C@H]3CC[C@H](N)CC3)nc3ccnn23)cc1 [Compound 31]	131 to 133 °C	+++	< 100 µM	< 100 µM	–
CCOc1ccc(Nc2c(C)c(N[C@H]3CC[C@H](N)CC3)nc3ccnn23)cc1 [Compound 32]	–	+++	< 100 µM	< 100 µM	–
CCc1c(N[C@H]2CC[C@H](N)CC2)nc2ccnn2c1Nc1ccc(OCc2ccccc2)cc1 [Compound 35]	120 to 122 °C	+++	< 100 µM	< 100 µM	–
NC1CCC(Nc2nc3ccnn3c(Nc3ccc(F)c(Cl)c3)c2-c2ccccc2)CC1 (stereo not shown) [Compound 12]	–	+++	< 100 µM	–	< 100 µM
CCOC(=O)c1cnn2c(Nc3ccc(F)c(Cl)c3)cc(N[C@H]3CC[C@H](N)CC3)nc12 [Compound 9]	221 to 223 °C	–	< 100 µM	–	–
Cc1c(N[C@H]2CC[C@H](N)CC2)nc2ccnn2c1Nc1ccc(F)c(Cl)c1 [Compound 10]	–	+++	< 100 µM	–	< 100 µM
CCc1c(N[C@H]2CC[C@H](N)CC2)nc2ccnn2c1Nc1ccc(Oc2ccccc2)cc1 [Compound 33]	147 to 149 °C	+++	< 100 µM	–	–
N[C@H]1CC[C@H](Nc2cc(Nc3ccc(F)c(Cl)c3)n3ncc(Br)c3n2)CC1 [Compound 2]	–	++	< 100 µM	–	< 100 µM
